These results are taken from patent publication US20020119917A1, “ANTI-INFLAMMATORY PEPTIDES DERIVED FROM C-REACTIVE PROTEIN” (priority 1996, published 2002).

Starred links: 1 amine or outer side, 2 acyl side, 3 side chain; linkers in the order of their positions; H or OH if unused. Non-standard residues stand in square brackets, D forms with d. Residues, ends and D or L forms follow the SMILES beside them. No end group written: not given here. *: point of attachment. X1 = CC(C)C[C@H](NC(=O)[C@@H](N)CS*)C(=O)N[C@@H](Cc1c[nH]cn1)C(=O)N[C@@H](Cc1ccccc1)C(=O)O; NH(1-Adamantyl) = C1C2CC3CC1CC(N*)(C2)C3; MeOSuc = COC(=O)CCC(=O)*; Octanoyl = CCCCCCCC(=O)*; Cbz = O=C(OCc1ccccc1)*; CO = O=C([*:1])[*:2]; Ahx = NCCCCCC(=O)O; Sar = CNCC(=O)O

For orientation: Ki means the dissociation constant of the complex between target and ligand, obtained from inhibition or displacement.

One experiment deals with T1, human leukocyte cathepsin G (hCG) (Homo sapiens, UniProt P08311).
T1 construct: Neutrophils (1.4 billion) were isolated from whole blood obtained from a single healthy laboratory donor; from tissue; host or cells: neutrophils from whole blood of a single healthy donor
T1 sequence (P08311 21-244 limits assumed): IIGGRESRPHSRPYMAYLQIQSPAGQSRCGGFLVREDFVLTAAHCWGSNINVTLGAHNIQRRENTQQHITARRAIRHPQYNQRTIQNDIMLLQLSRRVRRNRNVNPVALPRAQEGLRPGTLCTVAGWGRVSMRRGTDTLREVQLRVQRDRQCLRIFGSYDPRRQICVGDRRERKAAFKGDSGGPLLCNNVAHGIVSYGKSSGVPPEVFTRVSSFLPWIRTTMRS
Description: In-vitro inhibition of hCG (conversion of Suc-AAPF-NA). Format: biochemical.
Details: not given
How it is done: (§1) The enzymatic activity was assayed with MeOSuc-AAPV-NA for hLE determination and Suc-AAPF-NA for hCG determination (both in 100 mM Hepes buffer, pH 7.4, containing 0.05% of the […] detergent Brij-35). The activities of the individual enzymatic fractions were 100% free from cross-contamination. […] The fractions containing hLE and hCG were dialyzed each against 0.1% pyridinium acetate, pH 5.3, divided into 20 aliquots, lyophilized, and stored at −20° C. until use.
Similar conditions to hLE inhibition experiments ere used except the substrate: 80 μL of 1.8 mM Suc-AAPF-NA. The enzyme was issolved in 800 μL buffer, and the reaction was monitored every 6 min for 1 hour. The final volume was 240 μL containing: 5% DMSO, 1-500 μM peptide, 600 μM substrate, and 1.2 μg enzyme (about 40 picomol).
For hCG, V is determined by fitting a quadratic equation to the total kinetic data (60 min), using the least squares method and calculating V at t=0.
The inhibitory capability of several CRP-derived peptides was evaluated by inhibiting the enzymatic conversion of Suc-AAPF-NA (as described in Materials and Methods (vi) above).
Take `CC[C@H](C)[C@H](NC(=O)[C@H](Cc1c[nH]cn1)NC(=O)[C@@H](NC(=O)[C@@H]1CCCN1C(=O)[C@H](C)NC(=O)[C@@H](NC(=O)[C@@H](NC(=O)[C@@H](N)C(C)C)[C@@H](C)O)C(C)C)C(C)C)C(=O)N[C@@H](CSSC[C@H](N)C(=O)N[C@@H](CC(C)C)C(=O)N[C@@H](Cc1c[nH]cn1)C(=O)N[C@@H](Cc1ccccc1)C(=O)O)C(=O)O` [Peptide 4, Val89-Thr-Val-Ala-Pro-Val-His-Ile-Cys97-Cys36-His-Leu-Phe39] (H-VTVAPVHIC(X1)-OH): the “hCG inhibitory capability (in words)” value was “completely inactive”. Take `CC[C@H](C)[C@H](NC(=O)[C@H](Cc1c[nH]cn1)NC(=O)[C@@H](NC(=O)[C@@H]1CCCN1C(=O)[C@H](C)NC(=O)[C@@H](NC(=O)[C@@H](NC(=O)[C@@H](NC(=O)[C@H](CCC(=O)O)NC(=O)[C@@H]1CCCN1C(=O)[C@@H](NC(=O)[C@H](CCC(=O)O)NC(=O)[C@H](Cc1ccccc1)NC(=O)[C@H](CC(C)C)NC(=O)[C@@H](NC(=O)[C@H](CCC(=O)O)NC(=O)[C@H](CO)NC(=O)CN)[C@@H](C)CC)C(C)C)C(C)C)[C@@H](C)O)C(C)C)C(C)C)C(=O)N[C@@H](CSSC[C@H](N)C(=O)N[C@@H](CC(C)C)C(=O)N[C@@H](Cc1c[nH]cn1)C(=O)N[C@@H](Cc1ccccc1)C(=O)O)C(=O)O` [Peptide 5, Gly79-Ser-Glu-Ile-Leu-Phe-Glu-Val-Pro-Glu-Val-Thr-Val-Ala-Pro-Val-His-Ile-Cys97-Cys36-His-Leu-Phe39] (H-GSEILFEVPEVTVAPVHIC(X1)-OH): the “hCG inhibitory capability (in words)” value was “completely inactive”.

Another experiment addresses T2, human leukocyte elastase (hLE) (Homo sapiens, UniProt P08246).
T2 construct: Neutrophils (1.4 billion) were isolated from whole blood obtained from a single healthy laboratory donor; from tissue; host or cells: neutrophils from whole blood of a single healthy donor
T2 sequence (P08246 30-247 limits assumed): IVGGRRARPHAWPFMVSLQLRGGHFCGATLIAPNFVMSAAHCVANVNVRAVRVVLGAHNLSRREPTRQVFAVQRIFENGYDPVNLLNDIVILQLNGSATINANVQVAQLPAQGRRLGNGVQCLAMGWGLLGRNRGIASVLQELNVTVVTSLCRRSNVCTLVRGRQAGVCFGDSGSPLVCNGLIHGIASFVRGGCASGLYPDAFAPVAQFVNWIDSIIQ
The experiment is described as follows: In-vitro inhibition of hLE (cleavage of MeOSuc-AAPV-NA). In kind it is biochemical.
Details: not given
How it is done:
as §1
Peptides were dissolved in 100 mM Hepes buffer pH 7.4 containing 0.1% Brij-35 with 10% DMSO to yield 600 μM solutions, which were used to make further dilutions with the same buffer, and 80 μL aliquots were added in duplicates to 96-well plates. The substrate, 600 or 900 μM MeOSuc-AAPV-NA in the same buffer with 5% DMSO, was added to each well in addition to the blank wells, and the plate was placed in the plate reader equilibrated to 37° C. (Dynateck MR-6000). Lyophilized aliquots of hLE were dissolved in 1600 μL of 100 mM Hepes buffer without DMSO, and 80 μL of the enzyme solution was added to the peptides and substrate to initiate the reaction. […] The final volume was 240 μL containing: 5% DMSO, 1-200 μM of peptide, 200 μM substrate, and 0.75 μg (about 25 picomol) enzyme.
For hLE, V is determined by fitting a linear equation to the first 6 time-points (10 min) of the kinetics data using the least squares method. […] From calculating the error in the slope of the equation, the relative error for Ki was deduced:
Ki={slope*(1+[S]/Km)}^−1 because Ki=[I]*{(1+[S]/Km)*(Vo/Vi−1)}^−1.
The hLE inhibitory capability of CRP-derived peptides was evaluated by inhibiting the enzymatic cleavage of MeOSuc-AAPV-NA as described in Materials and Methods (section v).
`CC[C@H](C)[C@H](NC(=O)[C@H](Cc1c[nH]cn1)NC(=O)[C@@H](NC(=O)[C@@H]1CCCN1C(=O)[C@H](C)NC(=O)[C@@H](NC(=O)[C@@H](NC(=O)[C@@H](NC(=O)CCC(=O)OC)C(C)C)[C@@H](C)O)C(C)C)C(C)C)C(=O)O` [Peptide 15, MeOSuc-Val89-Thr-Val-Ala-Pro-Val-His-Ile96] (MeOSuc-VTVAPVHI-OH) had a Ki of 160 ± 30 µM.

Consider `CC[C@H](C)[C@H](NC(=O)[C@H](Cc1c[nH]cn1)NC(=O)[C@@H](NC(=O)[C@@H]1CCCN1C(=O)[C@H](C)NC(=O)[C@@H](NC(=O)[C@@H](NC(=O)[C@@H](NC(=O)NC12CC3CC(CC(C3)C1)C2)C(C)C)[C@@H](C)O)C(C)C)C(C)C)C(=O)O` [Peptide 17, Adamantyl-NH-CO-Val89-Thr-Val-Ala-Pro-Val-His-Ile96] ({NH(1-Adamantyl)-CO}-VTVAPVHI-OH), for which the Ki was 130 ± 15 µM.

On to `CCCCCCCC(=O)N[C@H](C(=O)N[C@H](C(=O)N[C@H](C(=O)N[C@@H](C)C(=O)N1CCC[C@H]1C(=O)N[C@H](C(=O)N[C@@H](Cc1c[nH]cn1)C(=O)N[C@H](C(=O)O)[C@@H](C)CC)C(C)C)C(C)C)[C@@H](C)O)C(C)C` [Peptide 19, Octanoyl-Val89-Thr-Val-Ala-Pro-Val-His-Ile96] (Octanoyl-VTVAPVHI-OH), for which the inhibitory constant (Ki) came to 280 ± 25 µM. With `CC[C@H](C)[C@H](NC(=O)[C@H](Cc1c[nH]cn1)NC(=O)[C@@H](NC(=O)[C@@H]1CCCN1C(=O)[C@H](C)NC(=O)[C@@H](NC(=O)[C@@H](NC(=O)[C@@H](NC(=O)OCc1ccccc1)C(C)C)[C@@H](C)O)C(C)C)C(C)C)C(=O)O` [Peptide 20, CBz-Val89-Thr-Val-Ala-Pro-Val-His-Ile96] (Cbz-VTVAPVHI-OH), the Ki turned out to be 165 ± 35 µM. Compound `CC[C@H](C)[C@H](NC(=O)[C@H](Cc1c[nH]cn1)NC(=O)[C@@H](NC(=O)[C@@H]1CCCN1C(=O)[C@H](C)NC(=O)[C@@H](NC(=O)[C@@H](NC(=O)[C@@H](NC(=O)CCCCCNC(C)=O)C(C)C)[C@@H](C)O)C(C)C)C(C)C)C(=O)O` [Peptide 22, Acetyl-aminocaproyl-Val89-Thr-Val-Ala-Pro-Val-His-Ile96] (Ac-[Ahx]VTVAPVHI-OH) came in with a Ki of 210 ± 30 µM.

With `CC[C@H](C)[C@H](NC(=O)[C@H](Cc1c[nH]cn1)NC(=O)[C@@H](NC(=O)[C@H]1CCCN1C(=O)[C@H](C)NC(=O)[C@@H](NC(=O)[C@@H](NC(=O)[C@@H](N)C(C)C)[C@@H](C)O)C(C)C)C(C)C)C(=O)O` [Peptide 27, Val89-Thr-Val-Ala-(D)Pro-Val-His-Ile96] (H-VTVA[dP]VHI-OH; N-terminus and C-terminus assumed), the inhibitory constant (Ki) was found to be 560 ± 170 µM. `CC[C@H](C)[C@H](NC(=O)[C@@H](Cc1c[nH]cn1)NC(=O)[C@H](NC(=O)[C@H]1CCCN1C(=O)[C@H](C)NC(=O)[C@@H](NC(=O)[C@@H](NC(=O)[C@@H](N)C(C)C)[C@@H](C)O)C(C)C)C(C)C)C(=O)O` [Peptide 28, Val89-Thr-Val-Ala-(D)Pro-(D)Val-(D)His-Ile96] (H-VTVA[dP][dV][dH]I-OH; N-terminus and C-terminus assumed) showed an inhibition constant Ki of 2300 ± 300 µM. Take `CC[C@H](C)[C@H](NC(=O)[C@H](Cc1c[nH]cn1)NC(=O)[C@@H](NC(=O)CN(C)C(=O)[C@H](C)NC(=O)[C@@H](NC(=O)[C@@H](NC(=O)[C@@H](N)C(C)C)[C@@H](C)O)C(C)C)C(C)C)C(=O)O` [Peptide 30, Val89-Thr-Val-Ala-Sarcosine-Val-His-Ile96] (H-VTVA[Sar]VHI-OH; N-terminus and C-terminus assumed): the “hLE inhibitory capability (in words)” value is “almost completely lost”. “Asn160-Met-Trp-Asp-Phe-Val165 [reference compound]”: the “hLE inhibitory capability (in words)” value is “No significant inhibition”. Turning to “Asp70-Ile-Gly-Tyr-Ser74 [reference compound]”, the “hLE inhibitory capability (in words)” value is “No significant inhibition”. For the compound “Asp112-Gly-Lys-Pro-Arg-Val-Arg-Lys119 [reference compound]”, the “hLE inhibitory capability (in words)” value is “No significant inhibition”. In the case of “Gln203-Leu-Trp-Pro206 [reference compound]”, the “hLE inhibitory capability (in words)” value is “No significant inhibition”. As to “Phe84-Glu-Val-Pro-Glu-Val-Thr90 [reference compound]”, the “hLE inhibitory capability (in words)” value is recorded as “No significant inhibition”. Regarding “Ser18-Tyr-Val-Ser-Leu-Lys23 [reference compound]”, the “hLE inhibitory capability (in words)” value is “No significant inhibition”.

For the compound “Thr76-Val-Gly-Gly-Ser80 [reference compound]”, the “hLE inhibitory capability (in words)” value is “No significant inhibition”. For the compound “Thr200-Lys-Pro-Gln-Leu-Trp-Pro206 [reference compound]”, the “hLE inhibitory capability (in words)” value is “No significant inhibition”. The compound “VTVAPVHIP-NH2 [Peptide 12, Val89-Thr-Val-Ala-Pro-Val-His-Ile96-Pro-NH2]” displayed an inhibitory constant (Ki) of 70 ± 5 µM.

“VTVAPVHIPP-NH2 [Peptide 14, Val89-Thr-Val-Ala-Pro-Val-His-Ile96-Pro-Pro-NH2]” had an inhibitory constant (Ki) of 85 ± 10 µM. Turning to “Val153-Gly-Asp-Ile-Gly-Asn-Val159 [reference compound]”, the “hLE inhibitory capability (in words)” value is recorded as “No significant inhibition”. Turning to “Val-Ala-Pro-Val (VAPV; printed: Val-Ala-Pro-Val) [reference compound]”, the “hLE inhibitory capability (in words)” value is “minute”.

Still in this experiment, the particulars now being: substrate MeOSuc-AAPV-NA, 100 mM Hepes pH 7.4, 37° C.; read-out: hLE Ki.
Consider `CC[C@H](C)[C@H](NC(=O)[C@H](Cc1c[nH]cn1)NC(=O)[C@@H](NC(=O)CN(C)C(=O)[C@H](C)NC(=O)[C@@H](NC(=O)[C@@H](NC(=O)[C@@H](N)C(C)C)[C@@H](C)O)C(C)C)C(C)C)C(=O)O` [Peptide 30, Val89-Thr-Val-Ala-Sarcosine-Val-His-Ile96] (H-VTVA[Sar]VHI-OH; N-terminus and C-terminus assumed), for which the Ki was determined as 1400 ± 500 µM. The same measure, in the same setting: the same measure for “LEAIPMSI [Peptide 24, Leu-Glu-Ala-Ile-Pro-Met-Ser-Ile, reference compound]”: 350 ± 70 µM. Regarding “VAPVHI [Peptide 26, Val91-Ala-Pro-Val-His-Ile96]”, the Ki was determined as 1000 ± 250 µM. Regarding “VTVAPV [Peptide 25, Val89-Thr-Val-Ala-Pro-Val94]”, the inhibition constant Ki was determined as 900 ± 300 µM. “VTVAPVSI [Peptide 9, Val89-Thr-Val-Ala-Pro-Val-Ser-Ile96]”: the Ki was found to be 200 ± 20 µM.
